Laboratory results published in PMC6261997, “Synergistic enzymatic and bioorthogonal reactions for selective prodrug activation in living systems” (Nature Communications, 2018).

Key:
[1] = tested on: HeLa tumours; test: Tumour inhibition test, subcutaneous HeLa xenograft; format: in vivo, BALB/c nude mice
Experimental: All animal studies were performed in accordance with the Institutional Animal Use and Care Regulations approved by the National Institutes of Health Clinical Center/Animal Care and Use Committee (NIH CC/ACUC). Athymic female nude mice (5–6 weeks old) were purchased from Beijing Huafukang Bioscience Co., Ltd., and raised in a specific-pathogen-free barrier facility. Tumour-bearing mice were established by subcutaneously injecting a suspension of 10^6 HeLa cells per mouse into the front flank of each nude mouse.
After 14 days, the mice were sacrificed.

[2] = MTT cell viability / cytotoxicity assay, HUVECs; format: cell-based; conditions: human; 500 μM 2, 24 h, MTT
Experimental: Cells were plated in flat-bottom 96-well plates at a density of 3 × 10^3 cells per well. After 12 h of cell attachment, the cell culture medium was replaced with 100 μL of pre-warmed media containing the compounds at different concentrations. After 24–72 h of incubation, cell proliferation was assessed by the MTT assay. A fresh mixture of 10 μL of thiazolyl blue tetrazolium bromide (MTT) and 90 μL of medium were freshly added to each well. After incubation for 4 h, the medium was gently removed. The formazan crystals that formed were dissolved in 110 μL of DMSO, and the absorbance was subsequently measured with a plate reader (Perkin Elmer) at 490 nm. EC50 values were calculated using Origin software. To measure the cytotoxicity of 2, HeLa cells, HUVECs, Saos-2 cells and CCC-HEH-2 cells were incubated with 100 μL of 1–500 μM 2 for 24 h, and then, cell viability was determined. To measure the cytotoxicity of TCO-Dox or Dox, HeLa cells, HUVECs, Saos-2 cells or CCC-HEH-2 cells were incubated with 200 μL of 0.001–10 μM TCO-Dox or Dox for 72 h, and the cell viability was determined. To determine the cytotoxicity of activated Dox, HeLa cells, HUVECs, […], and then, 2 was removed and 200 μL of 0.0001–10 μM TCO-Dox was added for 72 h of incubation, and cell viability was determined. […]
Prodrug activation efficacy in cells: Cells were plated on flat bottom 96-well plates at a
density of 3x10^3 cells per well. After 12 h attachment, cells were incubated with 100 µL
500 µM of 2 for 6 h before removing 2 and the addition of 200 µL 0.0001-10 µM of […]

[3] = Stability in human serum (UPLC-MS/MS); format: in vitro ADME; conditions: 10 μM in human serum
Experimental: (Sigma, St. Louis, MO). Then, 9 µL Na125I (2.4 mCi) (Beijing Atom High Tech, Beijing, China) was added and the mixture was kept at room temperature for 1 h until the labeling ratio reached to more than 95%. For SPECT/CT imaging, a mixture of 50 mg kg-1 2 and 0.875 mg kg-1 125I labelled 2 (700 µCi) were intravenously administrated to investigate the distribution of 2/3 and 0.875 mg kg-1 125I labelled 2 (700 µCi) was administrated as a control. After anesthetization with 2% isoflurane in oxygen, SPECT and helical CT scans of the mice were performed at 2, 5, 7 and 25 h on a NanoScan SPECT/CT imaging system (Mediso, Budapest, Hungary).
UPLC-MS/MS analyses: UPLC-MS/MS metabolomic analyses were performed using a Triple Quadrupole Liquid Chromatograph Mass Spectrometer (LCMS 8050, Shimadzu) in multiple reaction-monitoring mode (MRM). Data acquisition and processing were performed using LabSolutions version 5 software. Measurements were carried out at 40°C. […]
Plasmatic stability of compound 2 and TCO-Dox: To evaluate the stability of 2 and TCO-Dox under physiologically relevant conditions, compounds were incubated in human serum and the amount of the remaining intact compound (the corresponding dephosphorylated 3 was detected as well) was determined by UPLC-MS/MS. […] After centrifugation at 1559 g for 7 min and filtration, 2 µL of the supernatant was analyzed by UPLC-MS/MS (n=5).

With Cc1nnc(-c2ccc(CC(=O)NCCCCC(NC(=O)Cc3ccc4ccccc4c3)C(=O)NC(Cc3ccc(OP(=O)(O)O)cc3)C(=O)NC(Cc3ccccc3)C(=O)O)cc2)nn1 (stereo not shown) [compound 2, NapK(Tz)YpF] the “histological examination of dissected tumours (HE staining)” value ([1]; after treatment for 14 days) was “the HeLa cells remained normal”, the tumour growth ([1]; i.v., three courses (day 0, 3, 6), 50 mg kg^−1 2, 30 mg kg^−1 TCO-Dox, 5 mg kg^−1 Dox, or 50 mg kg^−1 2 then 30 mg kg^−1 TCO-Dox after 2 h) was “rapid growth similar to that observed in the saline control group” and the viability at 24 h, 500 μM [2] was greater than 85%. The stability in serum/plasma [3] was “partially transformed to the dephosphorylated product 3 in plasma”.
